Source: US20140294729A1, “METHODS FOR IDENTIFICATION AND USE OF AGENTS TARGETING CANCER STEM CELLS” (Whitehead Institute for Biomedical Research, priority 2008, published 2014)
“Also recorded” adds a separate entry of the source.

Legend:
[1] = system: SUM159 breast cancer cells; experiment: In vivo tumor formation by SUM159 breast cancer cells in treated mice; settings: FIG. 15A
Description: FIG. 15A depicts in vivo tumor formation by SUM159 breast cancer cells in mice that were treated with salinomycin, paclitaxel or vehicle. […] FIG. 15B depicts the mammosphere-forming potential of cancer cells obtained from SUM159 tumors from salinomycin, paclitaxel or DMSO-treated mice.
(§1) The mammosphere forming potential of parental HMLER cells treated with either DMSO, paclitaxel (taxol) or salinomycin was also examined at various doses. Salinomycin, but not paclitaxel inhibited mammosphere formation in MCF7Ras or 4T1 cells. (FIG. 14.) The effects of salinomycin, paclitaxel or vehicle control treatments on in vivo tumor formation by SUM159 breast cancer cells injected in mice was determined. […] (FIG. 15A.) The mammosphere-forming potential of cancer cells obtained from SUM159 tumors from salinomycin, paclitaxel or DMSO-treated mice was also determined (FIG. 15B.)

MCF7Ras cells = experiment: Mammosphere-forming potential of treated MCF7Ras cells; format: cell-based; settings: FIG. 14
Description: (§2) FIG. 14A depicts the mammosphere forming potential of parental HMLER cells treated with either DMSO, paclitaxel (taxol) or salinomycin at the specified doses. FIG. 14B depicts MCF7Ras or 4T1 cells that were treated with DMSO, paclitaxel or salinomycin. Mammosphere-forming potential is shown below.
(§3) Mammosphere culture was performed as described (Dontu et al., 2003), except that the culture medium contained 0.9% methyl cellulose (Stem cell technologies) to prevent cell aggregation. […] were plated per well in 96-well plates. The mammospheres were cultured for 7-10 days and then photographed and counted.
as §1

SUM159 cells = experiment: FACS of the CD44hi/CD24lo fraction in treated SUM159 cells; format: cell-based; settings: for percent of cells in the CD44hi/CD2410 fraction relative to DMSO controls: FIGS. 5C and 5D
From the text: FIG. 5A depicts flow cytometry analysis of Sum159, MDA-MB-231 and T47D cell lines with respect to cell surface expression of CD44 and CD24. Note that while the majority of cells in Sum159 and MDA-MB-231 line contain large amounts of CSCs, T47D cells have very few such cells. FIG. 5B depicts dose response curves of Sum159, MDA-MB-231 and T47D cell treated with Salinomycin.
To further characterize the effects of compound treatment on cancer cells, we conducted FACS analyses on SUM159 cells treated with salinomycin, abamectin, taxol, or DMSO.
(§4) The anti-CD44 (clone G44-26) antibody conjugated to APC and the anti-CD24 antibody (clone ML5) conjugated to PE used for FACS analysis were obtained from BD Bioscience and used according to the manufacturer's instructions. Propidium Iodide (5 ug/ml) was included in the staining protocol to distinguish live cells.

HMLER cells [2] = experiment: Mammosphere formation assay of treated HMLER cells; format: cell-based, human
Description: (§5) FIGS. 6A and 6B depict effects of salinomycin on the CSC population in HMLER cell line. (FIG. 6A) HMLER cells were treated with vehicle control (dmso), salinomycin or paclitaxel at the indicated concentrations for 15 days. FACS analysis were performed at the end of treatment to gauge the CD44+/CD24− CSC population (right panels). Note that salinomycin decreases the CD44+/CD24− population from a basal of 4.9% to 0.2%. Treated cultures were also subjected to the mammosphere formation assay (left panels). Number of mammopsheres formed per 1000 cells from each culture are indicated below the representative photographs of assay wells. (FIG. 6B) Growth rates of HMLER cultures after treatment with vehicle control (dmso), salinomycin or paclitaxel at the indicated concentrations in (A) for 15 days.
We examined the ability of breast cancer cells to form mammospheres following treatment with salinomycin.
as §3

[3] = system: SUM159 breast cancer cells; experiment: Mammosphere formation assay with SUM159 breast cancer cells; format: cell-based
Description: (§6) To directly evaluate the effect of salinomycin on cancer stem cell populations, we functionally assayed for cancer stem cell activity in salinomycin, taxol, or DMSO-treated cultures.
as §3

HMLER cells [4] = experiment: FACS of the CD44+/CD24- CSC population in treated HMLER cells; format: cell-based, human
Description: as §5
We then turned to the critical question of whether the compounds had the general ability to inhibit CSCs in breast cancer cell lines. […] We next compared the effects of salinomycin, control vehicle DMSO and paclitaxel on HMLER cells. […] The CD44+/CD24− fraction was thus 360-fold lower following treatment with salinomycin than with paclitaxel (FIG. 6A). Proliferation of the bulk population was not inhibited following treatment with salinomycin relative to either vehicle- or paclitaxel-treatment (FIG. 6B).
as §4

4T1 cells = experiment: Mammosphere-forming potential of treated 4T1 cells; format: cell-based; settings: FIG. 14
Description: as §2, §3, §1

[5] = system: CSCs in breast cancer cell populations; experiment: In vivo tumor-seeding ability after in vitro drug treatment (serial dilution, subcutaneous injection); parameters: species or system NOD/SCID mice
Description: Finally, we also directly assessed the functional presence of CSCs by assaying in vivo tumor-seeding ability following drug treatment. Cells were treated in vitro for 5 days and then injected subcutaneously into NOD/SCID mice. […] The proportion of functional CSCs was thus reduced by 1000-fold following salinomycin treatment compared to paclitaxel treatment.
as §6
We have established several downstream assays for the follow-up evaluation of screen hits with respect to their effects on cancer stem cells: (1) Treat cells in culture for a period of time with screen hits (e.g., compounds, compositions, antibodies, shRNAs, etc.), including the necessary controls, and then allow the cells to recover for a period (e.g., up to 12 hours, up to 24 hours, up to 48 hours, up to 72 hours etc.), and then perform FACS with markers that identify populations enriched for cancer stem cells (for example, but not limited to, CD44+/CD24− in the case of breast cancer). (2) Treat cells in culture for a period of time with screen hits, allow them to recover for a prescribed period of time, and then perform colony formation assays in suspension in the absence of chemical compound (for breast cancer cells, these assays are referred to as mammosphere formation assays). (3) Treat cells in culture for a period of time with screen hits, allow them to recover for a prescribed period of time, and then inject cells at various cell numbers subcutaneously into immunocompromised animals and evaluate the frequency of tumor formation. The number of injected cells could include 10̂6, 10̂5, 10̂4, 10̂3, and 10̂2 cells. Using follow-up assays, such as those disclosed herein, one can evaluate whether or not a screen hit (or any drug with potential CSC-directed activity) is a bonafide inhibitor of cancer stem cells.

With `CC(=O)O[C@H]1C(=O)[C@@]2(C)[C@H]([C@H](OC(=O)c3ccccc3)[C@]3(O)C[C@H](OC(=O)[C@H](O)[C@@H](NC(=O)c4ccccc4)c4ccccc4)C(C)=C1C3(C)C)[C@]1(OC(C)=O)CO[C@@H]1C[C@@H]2O` [paclitaxel] the “tumor volume / tumor growth compared with vehicle control” value [1] was “reduced tumor volume”, the mammosphere formation (MCF7Ras cells) was “not” and the “percent of cells in the CD44hi/CD2410 fraction relative to DMSO controls” value (SUM159 cells) was “did not significantly affect”. For the same compound, the mammosphere size (HMLER cells [2]) was “significant increase”, the “effect on the number of mammospheres” value (HMLER cells [2]; FIG. 6A) was “neither paclitaxel nor vehicle treatment affected the number of mammospheres” and the “number of cells capable of forming colonies in suspension culture relative to DMSO” value [3] was “increase”. The “increase of the CSC-fraction (CD44+/CD24−)” value (HMLER cells [4]; FIG. 6A) was 18 fold, the mammosphere formation (4T1 cells) was “not” and the “increase in tumor-seeding ability relative to controls” value ([5]; cells treated in vitro for 5 days, data not shown) was ~10 fold. For the same compound, the “CSC functional activity / CSC number in tumor-formation dilution series relative to DMSO-treated controls” value ([5]; mouse, in vivo) was “induced an increase in CSCs” and the “CSC functional activity / CSC number in tumor-formation dilution series relative to DMSO-treated controls” value ([5]; mouse, in vivo, listed as taxol) was “opposite effect”.

For `CC[C@@H](C(=O)[C@@H](C)[C@@H](O)[C@H](C)[C@@H]1O[C@@H]([C@@H](CC)C(=O)O)CC[C@@H]1C)[C@H]1O[C@]2(C=C[C@@H](O)[C@]3(CC[C@@](C)([C@H]4CC[C@](O)(CC)[C@H](C)O4)O3)O2)[C@H](C)C[C@@H]1C` [salinomycin], the “tumor volume / tumor growth compared with vehicle control” value [1] was “reduced tumor volume; also recorded: inhibition of tumor growth”, the mammosphere formation (MCF7Ras cells) was “inhibited” and the “increase in the CSC-depleted fraction” value (SUM159 cells) was ~3 fold. The “percent of cells in the CD44hi/CD2410 fraction relative to DMSO controls” value (SUM159 cells) was “significantly reduced”, the “percent of cells in the CD44hi/CD2410 fraction relative to DMSO controls” value (SUM159 cells; listed as Salinomycin) was “decrease in the CSC population” and the “decrease in the number of mammospheres relative to controls” value (HMLER cells [2]; FIG. 6A) was ~10 fold. For the same compound, the “number of cells capable of forming colonies in suspension culture relative to DMSO” value [3] was “significantly reduced”, the “CD44+/CD24− population after treatment (basal 4.9%)” value (HMLER cells [4]; 15 days) was 0.2% and the “CD44+/CD24− fraction lower following salinomycin than with paclitaxel” value (HMLER cells [4]; FIG. 6A) was 360 fold. The “decrease of the proportion of CD44+/CD24− cells relative to vehicle-treated controls” value (HMLER cells [4]; FIG. 6A) was 20 fold, the mammosphere formation (4T1 cells) was “inhibited” and the “decrease in tumor-seeding ability (CSCs) relative to vehicle/control treatment” value ([5]; cells treated in vitro for 5 days, injected subcutaneously, data not shown) was 100 fold. The “CSC functional activity / CSC number in tumor-formation dilution series relative to DMSO-treated controls” value ([5]; mouse, in vivo) was “significantly reduced” and the “reduction of functional CSCs following salinomycin compared to paclitaxel treatment” value ([5]; mouse, in vivo) was 1000 fold.
